Values of other authors in US20190026423A1, “Cycle Closure Estimation of Relative Binding Affinities and Errors” (Schrödinger, LLC, priority 2013, published 2019).
Read-outs that look alike come from different tables or passages of the source.

Biological target: CDK2-cyclin A receptor (Homo sapiens, UniProt P24941)
Conditions: experimental binding free energy
[1] = 6 ligands with crystal structures
[2] = ligands without crystal structures

Cc1cccc(Nc2nc(OCC3CCCCC3)c3nc[nH]c3n2)c1 [Compound 1h1r]
ΔG(EXP) [1]: -7.67 kcal/mol

CS(=O)(=O)c1cccc(Nc2nc(OCC3CCCCC3)c3nc[nH]c3n2)c1 [Compound 1oiu]
ΔG(EXP) [1]: -9.08 kcal/mol

CC(=O)c1ccc(Nc2nc(OCC3CCCCC3)c3nc[nH]c3n2)cc1 [Compound 1oiy]
ΔG(EXP) [1]: -9.79 kcal/mol

Cc1cccc(Nc2nc(OCC3CCCCC3)c3nc[nH]c3n2)c1 [Compound 17]
ΔG(EXP) [2]: -7.04 kcal/mol

CCc1cccc(Nc2nc(OCC3CCCCC3)c3nc[nH]c3n2)c1 [Compound 20]
ΔG(EXP) [2]: -8.72 kcal/mol
